These results are taken from patent publication US5627185A, “Acyclovir derivatives as antiviral agents” (priority 1995, dated 1997).

Where “and” joins values, the source holds several entries; their conditions need not be identical. Identical values can stand only once. Like-named read-outs stand apart in the source and are kept apart here. Where only a bound is given, the exact number is not on record here.

Data set [1] relates to Hepatitis B virus (HBV) replication, HBV virion, in transfected HepG2 (2.2.15) cells. The data set is described as follows: Anti-HBV activity on transfected HepG2 (2.2.15) cells (HBV virion). The class given is cell-based. The following applies: for EC50: 50% inhibition of HBV replication; for SI: SI = CC50/EC90; for EC90: 90% inhibition of HBV replication. The text has this: (§1) The experimental procedure used for evaluation of activity against Hepatitis B virus is as previously described by Korba and Milman in Antiviral Res. […].
(§2) 1. Anti-HBV activity on transfected HepG2 (2.2.15) cells of Bis(S-acyl-2-thioethyl)phosphotriester derivatives of Acyclovir, (compound 9 of Figure I), as compared with those of the parent nucleoside and of 2',3'-dideoxyguanosine (ddG) and 2',3'-dideoxycytidine (ddC) are shown in Table 1.
(§3) In Table 1, EC90 and EC50 represent the molar concentrations which provide respectively a 90% and a 50% inhibition of HBV replication. CC50 represents the molar concentration which reduces the viability of non-infected cells by 50%.

The nature of data set [2]: Viability of non-infected cells (CC50, Table 1). It counts as cell-based. Particulars: human, hepg2 2.2.15 cells, reduces viability of non-infected cells by 50%.
Source text: as §1, §2, §3

In a further data set the test system is HepG2 (2.2.15) cells. The data set is described as follows: Viability of non-infected cells (CC50, Table 1). It counts as cell-based. Particulars: reduces viability of non-infected cells by 50%.
Source text: as §1, §2, §3

For data set [3], the system named is Human Immunodeficiency virus (HIV-1, LAI isolate) replication in CEM TK- cells. Kind of data set: Anti-HIV activity on CEM TK- cells. It counts as cell-based. Particulars: Human immunodeficiency virus 1, CEM-TK(-), read-out: EC50 (anti-HIV). Here is the method: The experimental procedure used for evaluation of activities against Human Immunodeficiency virus (HIV) is as follows:
HIV-1 replication (LAI isolate) in CEM cells are measured by assaying for […] (RTase) in the culture supernatant after infection for five days. This activity reflects the presence of the virus released by the cells. After absorption of the virus, the test compounds are added at various concentrations in the culture medium. Antiviral activity is expressed as the lowest concentration of compound which reduces the vital production by at least 50% (ED50)
(§4) 2. Anti-HIV activity on CEM TK- cells of Bis(S-acyl-2-thioethyl) phosphotriesters derivatives of acyclovir, as compared with those of the parent nucleoside and of AZT are shown in Table 2.
In Table 2, EC50 represents the molar concentration which produces a 50% inhibition of HIV replication. Significant inhibition is shown.

A further data set is described as follows: in vitro. The following applies: human, cem cells. It counts as cell-based. The method, then:
The toxic effect on non-infected CEMs is assessed by a […] reaction based on the capacity of living cells to reduce 3-(4,5 dimethylthiazol-2-yl)-2,5 diphenyltetrazolium bromide into formazan after incubation for five days in the presence of various concentrations of the compounds. The results are expressed as the lowest concentration of compound which results in at least 50% inhibition of the formation of formazan (CD50).
as §4

In data set [4] the test system is Herpes simplex virus type 1 (HSV-1) in MRC-5 cells. Kind of data set: Anti-HSV activity on MRC-5 cells, HSV-1. It counts as cell-based. The following applies: Human alphaherpesvirus 1, MRC5, 50% inhibition of HSV-1 replication. The source says:
(§5) The experimental procedure used for evaluation of activities against Herpes simplex virus type 1 (HSV-1) is the as described by Genu-Dellac et al. in Nucleosides and Nucleotides, 10, 1345, (1991).
(§6) 3. Anti HSV activity on MRC-5 cells of Bis(S-acyl-2thioethyl)phosphotriesters derivatives of acyclovir is compared to that of Acyclovir in Table 3.
(§7) EC50 represents the molar concentration which produces a 50% inhibition of HSV-1 replication. Significant activity is shown.

For the next data set, the system named is HSV-1 TK- in MRC-5 cells. The data set is described as follows: Anti-HSV activity on MRC-5 cells, HSV-1 TK-. The class given is cell-based, Herpes simplex virus type 1 TK-. The following applies: Human alphaherpesvirus 1, MRC5, read-out: HSV-1 TK- EC50.
Source text: as §5, §6, §7

For data set [5], the system named is Human Immunodeficiency virus (HIV). Particulars: background; cited from earlier work.
The next data set concerns Hepatitis B virus (HBV). The following applies: background; cited from earlier work.
For the next data set, the system named is Epstein-Barr virus. The following applies: background; thymidine kinase activity reduced or missing; cited from earlier work.
In another data set the test system is Cytomegalovirus. Particulars: background; thymidine kinase activity reduced or missing; cited from earlier work.
For data set [6], the system named is Herpes Simplex virus (HSV). The following applies: background; due to selective monophosphorylation by HSV thymidine kinase; cited from earlier work.
Setting [7] is: Hepatitis B virus, HepG2 2.2.15, read-out: HBV virion EC50, transfected HepG2 (2.2.15) cells.
Setting [8] is: Hepatitis B virus, HepG2 2.2.15, transfected HepG2 (2.2.15) cells, read-out: HBV virion EC50.
Where [9] appears, read: Hepatitis B virus, HepG2 2.2.15, transfected HepG2 (2.2.15) cells.

The term EC50 denotes the concentration that produces a half-maximal response. The term CC50 denotes the concentration at which the toxic effect on the cells reaches its halfway point. Read a low CC50 as greater toxicity to the cells. What is called EC90 is the concentration needed for an effect of 90%.

Regarding `Nc1ccn([C@H]2CC[C@@H](CO)O2)c(=O)n1` [ddC, 2',3'-dideoxycytidine], the EC50 turned out to be 1.3 ± 0.2 µM in data set [1] (setting [7]) and 2.2 ± 0.3 µM in [1] (transfected HepG2 (2.2.15) cells, read-out: HBV virion EC50). Moreover, the SI in data set [1] was 20 and 30. In addition, the CC50 in data set [2] came out at 219 ± 19 µM; in the data set on HepG2 (2.2.15) cells, 218 ± 19 µM.

For the compound `CC(=O)SCCOP(=O)(OCCOCn1cnc2c(=O)[nH]c(N)nc21)OCCSC(C)=O` [Bis(SATE)ACVMP, O-[1-(Methyl-[9-guanin-yl])-1-hydroxyethyl-2-yl]-O',O"-bis(S-acetyl-2-thioethyl) phosphate], the EC50 came to 0.7 ± 0.1 µM in data set [1] (setting [8]), 77 µM in data set [3], 1.25 µM in data set [4] and 100 µM with HSV-1 TK- in MRC-5 cells. This compound also showed an EC90 in data set [1] (setting [9]) of 5.1 ± 1 µM. This compound also yielded an SI in data set [1] of 194. For the same compound, in [2], the CC50 is 987 ± 99 µM. In “in vitro”, this compound registered a CC50 at 120 h of over 100 µM. This compound showed a cytotoxicity at 120 h, 100 µM in the data set “in vitro” of 0%.

With `Cc1cn([C@H]2C[C@H](N=[N+]=[N-])[C@@H](CO)O2)c(=O)[nH]c1=O` [AZT], the EC50 in data set [3] was over 100 µM. Further, in the data set “in vitro”, the CC50 at 120 h is over 100 µM and the cytotoxicity at 120 h, 100 µM is 5%.

Regarding `Nc1nc2c(ncn2COCCO)c(=O)[nH]1` [Acyclovir, acyclovir], the EC50 in data set [1] (setting [7]) is 111 ± 15 µM; in data set [3], over 100 µM; in data set [4] it was 0.63 µM; in the data set on HSV-1 TK- in MRC-5 cells, over 100 µM. This compound also came in with an EC90 in data set [1] (setting [9]) of over 100 µM. In data set [2], this compound displayed a CC50 of 631 ± 40 µM. The same compound gave a CC50 at 120 h in the data set “in vitro” of over 100 µM. For the same compound, the cytotoxicity at 120 h, 100 µM in the data set “in vitro” was determined as 0%. In addition, the “activity against HIV (in words)” value in data set [5] is “no activity”. Also, the “activity against HBV (in words)” value with Hepatitis B virus (HBV) is on record as “no activity”. For the same compound, the “activity against Epstein-Barr virus (in words)” value in the data set on Epstein-Barr virus is “poorly active”. Further, in the data set with Cytomegalovirus, the “activity against Cytomegalovirus (in words)” value was “poorly active”. Besides, the “anti-herpetic activity (in words)” value in data set [6] is recorded as “anti-herpetic activity”.

As to `CC(C)(C)C(=O)SCCOP(=O)(OCCOCn1cnc2c(=O)[nH]c(N)nc21)OCCSC(=O)C(C)(C)C` [Bis(SPTE)ACVMP, O-[1-(Methyl-[9-guanin-yl]) -1-hydroxyethyl-2-yl]-O',O"-bis(S-pivaloyl-2-thioethyl) phosphate], the EC50 in data set [1] (setting [8]) was 0.2 ± 0.04 µM; in data set [3] it was 3.6 µM; in [4], 2.5 µM; in the data set on HSV-1 TK- in MRC-5 cells, 10 µM. Moreover, the EC90 in data set [1] (setting [9]) was 7.1 ± 0.8 µM. Also, the SI in data set [1] came out at 224. The compound also came in with a CC50 in [2] of 1590 ± 131 µM. For the same compound, the CC50 at 120 h in “in vitro” is over 10 µM. Further, the cytotoxicity at 120 h, 10 µM in “in vitro” was found to be 26%.
